Consider 1 molecule from patent publication US20200316096A1, “COMBINATION OF DIET AND DRUG THERAPY FOR TREATING CANCER” (Trustees of Boston College, priority 2019, published 2020).

The test system of one experiment is Iba-1. The experiment can be described thus: Iba-1 expression in VM-M3 brain tumour tissue (immunohistochemistry, western blot). To be noted: DON treated brain tumour tissue; immunohistochemistry and western blot. It is filed as in vivo, mouse (VM/Dk). The protocol: FIGS. 6A-6C. Restricted Ketogenic diet with DON reduces the Iba-1 expression in the VM-M3 brain tumour tissue. Immunohistochemistry (IHC) of Iba-1 was performed in formalin fixed brain tissues as described in Methods. […] Western blot analysis of Iba-1 protein expression in the tumours indicates a decrease in the expression of Iba-1 in the DON treated tumours (n=3 mouse tumour brain tissue) in comparison to SD-UR (n=3 mouse tumour brain tissue). A decrease in expression was also seen for KD-R mice (n=2 mouse tumour brain tissue). Normal brain (NB) was used as a negative control tissue, FIGS. 6B and 6C.
Iba-1 protein expression was analyzed in the VM-M3 brain tumour tissue by immunohistochemistry and western blot. Iba-1 was heavily expressed in VM-M3 tumour and normal microglia/macrophages, as we described previously^37. The KD-R reduced the expression of Iba-1 as shown in both immunohistochemistry and western blot (FIGS. 6A and 6B). […]
Approximately 100 μg of total protein from each tissue sample was denatured with SDS-PAGE sample buffer [63 mmol/L Tris-HCl (pH 6.8), 10% glycerol, 2% SDS, 0.0025% bromphenol blue, and 5% 2-mercaptoethanol] and was resolved by SDS-PAGE on 4% to 12% Bis-Tris gels (Invitrogen). […] Each membrane was stripped and reprobed for β-actin as an internal loading control and the ratio of the Iba-1 to β-actin was analyzed by scanning densitometry (FluorChem 8900 Software).

A further experiment deals with VM-M3 tumour cells. The experiment can be described thus: VM-M3 brain tumour histology (H&E) and Ki-67 staining. To be noted: compared with SD-UR brains. It is filed as in vivo, mouse (VM/Dk).

Description for VM-M3 tumour cells: VM/Dk mice were implanted with VM-M3 cells orthotopically in the brain on day 0 as described in the previous figures. The brains were fixed in formalin for histology, processed, and stained as described in Methods. Histological analysis (H&E) was used to validate the presence of tumour cells, FIG. 3A. […] DAPI is used for the Ki-67 negative nuclear stain.
Brain tumour samples were fixed in 10% neutral buffered formalin (Sigma) and embedded in paraffin. The brain tumour samples were sectioned at 5 μm, were stained with haematoxylin and eosin (H&E) at the Harvard University Rodent Histopathology Core Facility (Boston, Mass.), and were examined by light microscopy using either a Zeiss Axioplan 2 or Nikon SMZ1500 light microscope. Images were acquired using SPOT Imaging Solutions (Diagnostic Instruments, Inc.) cameras and software. All histological sections were evaluated at the Harvard University Rodent Histopathology Core Facility.
For immunohistochemistry, the tissue sections from untreated and treated tumour bearing mice were deparaffinized, rehydrated, and washed. The tissue sections were then heat treated (95° C.) in antigen unmasking solution (Vector Laboratories, Burlingame, Calif.) for 30 min. […] Nuclei were stained using NucBlue (Invitrogen). Images were captured by the EVOS FL Cell Imaging System fluorescent microscope. […]

For `[N-]=[N+]=CC(=O)CC[C@H](N)C(=O)O` [DON, 6-diazo-5-oxo-L-norleucine], the Iba-1 expression result in the experiment with Iba-1 was “significant reduction”. Moreover, the “histology (H&E) of primary tumour” value with VM-M3 tumour cells is recorded as “significant area of dead cells”.
